{"source": "patent US12128098B2", "about": "“Non-specific delayed-type hypersensitivity response to treat herpes simplex virus infection” (Squarex, LLC, priority 2015, dated 2024)", "key": {"[1]": {"tested_on": "warts", "conditions": "intralesional injection together with antigens versus antigen alone; differences not statistically significant; US 20050175634; cited from earlier work"}, "[2]": {"tested_on": "HSV outbreak (cold sore on lower lip)", "assay": "Treatment of an individual suffering from frequent and severe cold sores with topical DNCB at the site of the lesion", "assay_type": "in vivo, human", "text": "The individual treated was one of the inventors. They are a person and was […] at the time of this treatment. The subject suffered from frequent cold sores on the lower lip. The outbreaks typically lasted 7-10 days and frequently longer. The subject had suffered from frequent cold sores most of their life. During the 6 months prior to this treatment, the outbreaks had been almost continuous. After getting over one outbreak, the next outbreak would begin often within a week.\nIn the morning they washed it off. A mild erythema in the area of the cold sore developed over 2-3 days and lasted a further 5 days, and the cold sore resolved in about 7 days, which was a typical duration for this individual or a slightly shorter duration than normal. […] Each outbreak would begin and completely resolve in one day. […] We think this may be because the immune system was recognizing not just the DNCB but also the herpes virus antigens with this second application. With the greater inflammation, the cold sore outbreak was worse than any of the outbreaks between the first and second DNCB treatments. […] The outbreak seemed to worsen as the inflammation associated with the DTH response worsened, and only lessened when the DTH response subsided.\nWhen the outbreak subsided, the subject went another 6 months without any outbreaks to the present time.\nFor several months before and for the entire time described herein after the initial DNCB treatment, the subject took no antiviral medicines."}, "[3]": {"assay": "Presensitization and dose finding with DNCB solutions on the forearm (rash / erythema, DTH response)", "assay_type": "in vivo, human", "conditions": "for erythema on forearm: sensitized subject", "text": "The subject then applied a 0.1%, 0.2%, and 0.3% solutions to separate small spots on the forearm."}, "[4]": {"tested_on": "herpes labialis (HSV cold sore outbreaks)", "assay": "Clinical trial: treatment of herpes labialis by squaric acid dibutyl ester, time to and proportion of cold sore outbreaks after the sensitization dose", "assay_type": "in vivo, human", "conditions": "for Average days to first outbreak after the sensitization dose: 120 days used if no outbreak in 120 days", "description": "Thirty patients are recruited meeting the following criteria:\nIn a screening interview, vital signs are recorded, and information is collected on any medications the patient is currently taking, previous and current treatments for cold sores, severity and duration of cold sores.\n[…] Participants are told then to wait at least 2 weeks for their first treatment.\nThroughout the study, the participants are asked to maintain a subject diary, in which they record each day any symptoms they experience, including fever, swelling, pain, redness, itching, burning, the size of any lesions, and any medications taken.\nVisit 2: After the 2-week period to allow development of sensitivity to SADBE, upon the beginning of his or her next outbreak (within 72 hours of the first signs of an outbreak), each participant is swabbed at the site of the herpes labialis lesion with a 0.5% solution of SADBE in DMSO.\nVisit 3: Upon the next distinct outbreak at least 2 weeks after the previous treatment at visit 2, study diaries are collected. If the diary reflects redness, blistering, or burning greater than 0.5 cm beyond the clinical lesion with the previous SADBE treatment, the dosage of SADBE is decreased to 0.1%. If the diary reflects no redness or inflammation attributable to SADBE treatment, dosage is increased to 2%. Otherwise, dosage is maintained at 0.5%. Participants are swabbed at the site of the herpes labialis lesion with the SADBE solution.\nIf the hypersensitivity reaction produced by SADBE is excessive, patients are treated with a topical steroidal antiinflammatory cream. When a patient requests, outbreaks are treated with oral valacyclovir until the outbreak resolves.\nFor at least 6 months after visit 2, patients maintain their diaries. Every two months the diaries are collected.\nA total of 46 patients have been enrolled in the study and have not dropped out.\nThe p value was calculated using the Fischer's two-tailed exact test.\nThe average days to the first outbreak after the sensitization dose was also measured. […] The A: placebo, 0% SADBE in DMSO."}, "[5]": {"assay": "Clinical trial of SADBE: rash (erythema) from the sensitization dose", "assay_type": "in vivo, human", "conditions": "pooled treatment groups B and C, 2% SADBE in DMSO", "text": "Visit 1: Upon entering the study, patients are sensitized to squaric acid dibutyl ester (SADBE) by dipping a cotton-tipped swab in a 2% solution of SADBE in DMSO and swabbing a 1 cm^2 area on the forearm. Participants are told then to wait at least 2 weeks for their first treatment."}, "[6]": {"conditions": "third treatment, 0.1% DNCB solution on cold sore"}}, "note": "Several values for one entry are separate records, joined by “and”; a condition that tells them apart may be missing. Identical values can stand only once. Entries after “also recorded” stand apart in the source; their conditions may differ. Marks after values point to notes of the source that are not given here."}
{"compound": "interferon alpha", "values": [{"measurement": "fraction of patients responding to treatment", "setting": "[1]", "result": "A larger fraction of patients receiving interferon or GM-CSF together with the antigens responded to treatment than patients receiving antigen alone"}]}
{"compound": "O=[N+]([O-])c1ccc(Cl)c([N+](=O)[O-])c1", "note": "[DNCB, 1-chloro-2,4-dinitrobenzene]", "values": [{"measurement": "severity and duration of subsequent outbreaks", "setting": "[2]; 4 weeks following the first 0.2% DNCB treatment of the lip lesion", "result": "much less severe and of much shorter duration than before"}, {"measurement": "time without any outbreak after treatment", "setting": "[2]; after the third treatment (0.1% DNCB), to the present time", "result": 6, "unit": "months"}, {"measurement": "erythema in the area of the cold sore", "setting": "[2]; first application of 0.2% DNCB in acetone to cold sore on lower lip, left overnight", "result": "mild erythema"}, {"measurement": "time to resolution of the treated cold sore", "setting": "[2]; first application of 0.2% DNCB in acetone to the lip lesion, typical outbreaks before lasted 7-10 days", "result": "about 7 days"}, {"measurement": "time without any outbreak after treatment", "setting": "[2]; following the second DNCB treatment at the site of a lesion", "result": 6, "unit": "months"}, {"measurement": "frequency of cold sore outbreaks after treatment", "setting": "[2]; next 4 weeks following the first 0.2% DNCB treatment", "result": "approximately weekly"}, {"measurement": "duration of each subsequent outbreak", "setting": "[2]; outbreaks in the 4 weeks following the first 0.2% DNCB treatment", "result": "one"}, {"measurement": "inflammation and erythema with the application", "setting": "[2]; second application of 0.2% DNCB in acetone to lip lesion, about two months after the first", "result": "more severe than they had been with the first application"}, {"measurement": "duration of the treated HSV outbreak", "setting": "[2]; second application of 0.2% DNCB to lip lesion", "result": "about 7 days"}, {"measurement": "DTH response at the cold sore", "setting": "[2]; [6]", "result": "moderate DTH response"}, {"measurement": "duration of the treated HSV outbreak", "setting": "[2]; [6]", "result": "about 10 days"}, {"measurement": "erythema on forearm", "setting": "[3]; 0.1% DNCB solution", "result": "almost no erythema"}, {"measurement": "erythema on forearm", "setting": "[3]; 0.2% DNCB solution", "result": "mild but easily seen erythema"}, {"measurement": "rash after presensitizing application", "setting": "[3]; 2% DNCB solution in acetone, cotton-tipped swab, two spots on forearm, first application", "result": "No rash developed"}, {"measurement": "duration of rash after second application", "setting": "[3]; 2% DNCB solution on forearm, two weeks after the sensitizing dose", "result": 3, "unit": "weeks"}, {"measurement": "rash after second application", "setting": "[3]; 2% DNCB solution on forearm, two weeks after the sensitizing dose, different spots", "result": "very strong but localized rash"}]}
{"compound": "GM-CSF: cytokine used as immune response enhancer", "values": [{"measurement": "fraction of patients responding to treatment", "setting": "[1]", "result": "A larger fraction of patients receiving interferon or GM-CSF together with the antigens responded to treatment than patients receiving antigen alone"}]}
{"compound": "CCCCOc1c(OCCCC)c(=O)c1=O", "note": "[SADBE, 3,4-Dibutoxy-3-cyclobutene-1,2-dione]", "values": [{"measurement": "Persons having an outbreak within X days after the sensitization dose", "setting": "[4]; <120 days, group B", "result": "6 (of 16)"}, {"measurement": "Persons having an outbreak within X days after the sensitization dose", "setting": "[4]; <120 days, group C", "result": "4 (of 15)"}, {"measurement": "Days to first new outbreak after sensitization dose on upper arm", "setting": "[4]; each patient, 2% SADBE applied to the inner aspect of the upper arm", "result": "37 days and 41 days and 50 days and 80 days and 91 days and >120 days (19×) and 14 days (2×) and 15 days and 18 days and 34 days"}, {"measurement": "Average days to first outbreak after the sensitization dose", "setting": "[4]; group B, n 16", "result": 88.5, "unit": "days"}, {"measurement": "Average days to first outbreak after the sensitization dose", "setting": "[4]; group C, n 15", "result": 94.7, "unit": "days"}, {"measurement": "Average days to first outbreak after the sensitization dose", "setting": "[4]; pooled groups B + C, n 31, p=0.041 vs placebo, t test", "result": "91.5* days"}, {"measurement": "proportion who had a first outbreak between 30 and 120 days after receiving the sensitization dose", "setting": "[4]; pooled groups B and C", "result": "5 of 26"}, {"measurement": "effect on future HSV outbreaks", "setting": "[4]; single topical sensitization dose of 2% SADBE in DMSO on the upper arm, no application at the lesion", "result": "prevented future HSV outbreaks; also recorded: usually did not have a subsequent outbreak during the study time"}, {"measurement": "median time to the next HSV outbreak versus placebo", "setting": "[4]; treated patients who did not develop a visible erythema at the site of application", "result": "longer median time to the next HSV outbreak than patients receiving placebo"}, {"measurement": "median time to the next outbreak, outbreaks occurring in the 21 days after the sensitization dose excluded", "setting": "[4]; treatment group, counting from the day of the sensitization dose", "result": "greater than 120 days"}, {"measurement": "median time to the next outbreak counting from day 21 after the sensitization dose", "setting": "[4]; treatment group, outbreaks in first 21 days excluded", "result": "greater than 99 days"}, {"measurement": "Persons having an outbreak within X days after the sensitization dose", "setting": "[4]; within 30 days, group B (2% SADBE in DMSO sensitization, 0.5% treatment solution)", "result": "2 (of 16)"}, {"measurement": "Persons having an outbreak within X days after the sensitization dose", "setting": "[4]; within 30 days, group C (2% SADBE in DMSO sensitization, 0.2% treatment solution)", "result": "3 (of 15)"}, {"measurement": "Persons having an outbreak within X days after the sensitization dose", "setting": "[4]; within 30 days, pooled groups B + C (of 31), p vs placebo 0.26", "result": 5}, {"measurement": "Persons having an outbreak within X days after the sensitization dose", "setting": "[4]; within 45 days, group B", "result": "4 (of 16)"}, {"measurement": "Persons having an outbreak within X days after the sensitization dose", "setting": "[4]; within 45 days, group C", "result": "4 (of 15)"}, {"measurement": "Persons having an outbreak within X days after the sensitization dose", "setting": "[4]; within 45 days, pooled groups B + C (of 31), p vs placebo 0.099", "result": 8}, {"measurement": "Persons having an outbreak within X days after the sensitization dose", "setting": "[4]; within 60 days, group B", "result": "5 (of 16)"}, {"measurement": "Persons having an outbreak within X days after the sensitization dose", "setting": "[4]; within 60 days, group C", "result": "4 (of 15)"}, {"measurement": "Persons having an outbreak within X days after the sensitization dose", "setting": "[4]; within 60 days, pooled groups B + C (of 31), p vs placebo 0.0583", "result": 9}, {"measurement": "subjects who had a rash (erythema) from the sensitization dose", "setting": "[5]", "result": "17 of 28"}]}
